Assay results: US20200339544A1 (JOINT STOCK COMPANY "BIOCAD", priority 2017, published 2020)
Where a name gives a salt, the structure may show the parent alone.

Test: Chemical stability in simulated gastric fluid (SGF)
Type: physicochemical
Settings: SGF without enzymes, pH 1,4; 10 μm; 2 hours at 37° C.; substance amount remaining
Summary of the method: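 Compound at 10 μm (diluted from 10 mM DMSO stock) incubated 2 h at 37° C in enzyme-free SGF, pH=1,4, or enzyme-free SIF, pH=6.5. HPLC peak areas before and after incubation give % compound remaining.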

`C=CC(=O)Nc1cc(Nc2cc(C(=O)c3ccc(N4CC(OC)C4)cc3)ccn2)c(OC)cc1N(C)CCN(C)C` (racemic) [EGFR_3365_53, N-(2-((2-(dimethylamino)ethyl)(methyl)amino)-4-methoxy-5-((4-(4-(3-methoxyazetidin-1-yl)benzoyl)pyridin-2-yl)amino)phenyl)acrylamide] and `C=CC(=O)Nc1cc(Nc2nccc(C(=O)c3ccc(N4CC(OC)C4)cc3)n2)c(OC)cc1N(C)CCN(C)C` [EGFR_3365_61, N-(2-((2-(dimethylamino)ethyl)(methyl)amino)-4-methoxy-5-((4-(4-(3-methoxyazetidin-1-yl)benzoyl)pyrimidin-2-yl)amino)phenyl)acrylamide] are the same in “Stability in SGF, %” value: 100.0% for the first, 100.0% for the second.

`C=CC(=O)Nc1cc(Nc2nccc(C(=O)c3ccccc3C(F)(F)F)n2)c(OC)cc1N(C)CCN(C)C` [EGFR_3365, N-(2-((2-(dimethylamino)ethyl) (methyl)amino)-4-methoxy-5-((4-(2-(trifluoromethyl)benzoyl)pyrimidin-2-yl)amino)phenyl)acrylamide] and `C=CC(=O)Nc1cc(Nc2nccc(C(=O)c3ccccc3Br)n2)c(OC)cc1N(C)CCN(C)C` [EGFR_3365_12, N-(5-((4-(2-bromobenzoyl)pyrimidin-2-yl)amino)-2-((2-(dimethylamino)ethyl) (methyl)amino)-4-methoxyphenyl)acrylamide] are the same in “Stability in SGF, %” value: 100.0% for the first, 100.0% for the second.

`C=CC(=O)Nc1cc(Nc2cc(C(=O)c3ccccc3)ccn2)c(OC)cc1N(C)CCN(C)C` [EGFR_3365_3, N-(5-((4-benzoylpyridin-2-yl)amino)-2-((2-(dimethylamino)ethyl)(methyl)amino)-4-methoxyphenyl)acrylamide] and `C=CC(=O)Nc1cc(Nc2cc(C(=O)c3ccc(OC)cc3)ccn2)c(OC)cc1N(C)CCN(C)C` [EGFR_3365_51, N-(2-((2-(dimethylamino)ethyl)(methyl)amino)-4-methoxy-5-((4-(4-methoxybenzoyl)pyridin-2-yl)amino)phenyl)acrylamide] are the same in “Stability in SGF, %” value: 100.0% for the first, 100.0% for the second.

`C=CC(=O)Nc1cc(Nc2cc(C(=O)c3ccc(N(C)C)cc3)ccn2)c(OC)cc1N(C)CCN(C)C.O=C(O)C(F)(F)F` [EGFR_3365_4, N-(5-((4-(4-(dimethylamino)benzoyl)pyridin-2-yl)amino)-2-((2-(dimethylamino)ethyl) (methyl)amino)-4-methoxyphenyl)acrylamide 2,2,2-trifluoroacetate] and `C=CC(=O)Nc1cc(Nc2cc(C(=O)c3ccc(OCC)cc3)ccn2)c(OC)cc1N(C)CCN(C)C` [EGFR_3365_52, N-(2-((2-(dimethylamino)ethyl)(methyl)amino)-5-((4-(4-ethoxybenzoyl)pyridin-2-yl)amino)-4-methoxyphenyl) acrylamide] are the same in “Stability in SGF, %” value: 100.0% for the first, 100.0% for the second.

`C=CC(=O)Nc1cc(Nc2nccc(C(=O)c3ccc(F)cc3)n2)c(OC)cc1N(C)CCN(C)C` [EGFR_3365_10, N-(2-((2-(dimethylamino)ethyl)(methyl)amino)-5-((4-(4-fluorobenzoyl)pyrimidin-2-yl)amino)-4-methoxyphenyl) acrylamide] and `C=CC(=O)Nc1cc(Nc2nccc(C(=O)c3ccc(OC)cc3)n2)c(OC)cc1N(C)CCN(C)C` [EGFR_3365_28, N-(2-((2-(dimethylamino)ethyl)(methyl)amino)-4-methoxy-5-((4-(4-methoxybenzoyl)pyrimidin-2-yl)amino)phenyl)acrylamide] are the same in “Stability in SGF, %” value: 100.0% for the first, 100.0% for the second.

`C=CC(=O)Nc1cc(Nc2nccc(C(=O)c3ccc(OCc4ccccc4)cc3)n2)c(OC)cc1N(C)CCN(C)C` [EGFR_3365_16, N-(5-((4-(4-(benzyloxy)benzoyl)pyrimidin-2-yl)amino)-2-((2-(dimethylamino)ethyl)(methyl)amino)-4-methoxyphenyl)acrylamide] and `C=CC(=O)Nc1cc(Nc2nccc(C(=O)c3ccc(Oc4ccccc4)cc3)n2)c(OC)cc1N(C)CCN(C)C` [EGFR_3365_17, N-(2-((2-(dimethylamino)ethyl)(methyl)amino)-4-methoxy-5-((4-(4-phenoxybenzoyl)pyrimidin-2-yl)amino)phenyl)acrylamide] are the same in “Stability in SGF, %” value: 100.0% for the first, 100.0% for the second.

Going from `C=CC(=O)Nc1cc(Nc2nccc(C(=O)c3ccc(OCC)cc3)n2)c(OC)cc1N(C)CCN(C)C` [EGFR_3365_29, N-(2-((2-(dimethylamino)ethyl)(methyl)amino)-5-((4-(4-ethoxybenzoyl)pyrimidin-2-yl)amino)-4-methoxyphenyl) acrylamide] to `C=CC(=O)Nc1cc(Nc2nccc(C(=O)c3ccc(OCCC)cc3)n2)c(OC)cc1N(C)CCN(C)C` [EGFR_3365_30, N-(2-((2-(dimethylamino)ethyl)(methyl)amino)-4-methoxy-5-((4-(4-propoxybenzoyl)pyrimidin-2-yl)amino)phenyl)acrylamide], the “Stability in SGF, %” value rises from 98.1% to 100.0%.

`C=CC(=O)Nc1cc(Nc2nccc(C(=O)c3ccc(OC(C)C)cc3)n2)c(OC)cc1N(C)CCN(C)C` [EGFR_3365_31, N-(2-((2-(dimethylamino)ethyl)(methyl)amino)-5-((4-(4-isopropoxybenzoyl)pyrimidin-2-yl)amino)-4-methoxyphenyl) acrylamide] and `C=CC(=O)Nc1cc(Nc2nccc(C(=O)c3ccc(N(C)C)cc3)n2)c(OC)cc1N(C)CCN(C)C` [EGFR_3365_73, N-(5-((4-(4-(dimethylamino)benzoyl)pyrimidin-2-yl)amino)-2-((2-(dimethylamino)ethyl) (methyl)amino)-4-methoxyphenyl)acrylamide] are the same in “Stability in SGF, %” value: 100.0% for the first, 100.0% for the second.

`C=CC(=O)Nc1cc(Nc2cc(C(=O)c3ccc(OCCC)cc3)ccn2)c(OC)cc1N(C)CCN(C)C` [EGFR_3365_50, N-(2-((2-(dimethylamino)ethyl)(methyl)amino)-4-methoxy-5-((4-(4-propoxybenzoyl)pyridin-2-yl)amino)phenyl)acrylamide] and `C=CC(=O)Nc1cc(Nc2nccc(C(=O)c3ccc(OCCCC)cc3)n2)c(OC)cc1N(C)CCN(C)C` [EGFR_3365_66, N-(5-((4-(4-butoxybenzoyl)pyrimidin-2-yl)amino)-2-((2-(dimethylamino)ethyl)(methyl)amino)-4-methoxyphenyl)acrylamide] are the same in “Stability in SGF, %” value: 100.0% for the first, 100.0% for the second.

Going from `C=CC(=O)Nc1cc(Nc2cc(C(=O)c3ccc(N4CCN(C)CC4)cc3)ccn2)c(OC)cc1N(C)CCN(C)C` [EGFR_3365_55, N-(2-((2-(dimethylamino)ethyl)(methyl)amino)-4-methoxy-5-((4-(4-(4-methylpiperazin-1-yl)benzoyl)pyridin-2-yl)amino)phenyl)acrylamide] to `C=CC(=O)Nc1cc(Nc2cc(C(=O)c3ccc(N4CCCC4)cc3)ccn2)c(OC)cc1N(C)CCN(C)C` [EGFR_3365_56, N-(2-((2-(dimethylamino)ethyl)(methyl)amino)-4-methoxy-5-((4-(4-(pyrrolidin-1-yl)benzoyl)pyridin-2-yl)amino)phenyl)acrylamide], the “Stability in SGF, %” value rises from 98.8% to 99.8%.

First: C=CC(=O)Nc1cc(Nc2nccc(C(=O)c3ccc(N4CCC4)cc3)n2)c(OC)cc1N(C)CCN(C)C [EGFR_3365_58, N-(5-((4-(4-(azetidin-1-yl)benzoyl)pyrimidin-2-yl)amino)-2-((2-(dimethylamino)ethyl)(methyl)amino)-4-methoxyphenyl)acrylamide]
Second: C=CC(=O)Nc1cc(Nc2nccc(C(=O)c3ccc(N4CCCC4)cc3)n2)c(OC)cc1N(C)CCN(C)C [EGFR_3365_63, N-(2-((2-(dimethylamino)ethyl)(methyl)amino)-4-methoxy-5-((4-(4-(pyrrolidin-1-yl)benzoyl)pyrimidin-2-yl)amino)phenyl)acrylamide]
The “Stability in SGF, %” value of the first is lower: 89.9% for the first, 100.0% for the second.

`C=CC(=O)Nc1cc(Nc2nccc(C(=O)c3ccc(N4CCN(C)CC4)cc3)n2)c(OC)cc1N(C)CCN(C)C` [EGFR_3365_62, N-(2-((2-(dimethylamino)ethyl)(methyl)amino)-4-methoxy-5-((4-(4-(4-methylpiperazin-1-yl)benzoyl)pyrimidin-2-yl)amino)phenyl)acrylamide formate] and `C=CC(=O)Nc1cc(Nc2nccc(C(=O)c3ccc(N(CC)CC)cc3)n2)c(OC)cc1N(C)CCN(C)C` [EGFR_3365_72, N-(5-((4-(4-(diethylamino)benzoyl)pyrimidin-2-yl)amino)-2-((2-(dimethylamino)ethyl)(methyl)amino)-4-methoxyphenyl)acrylamide] are the same in “Stability in SGF, %” value: 100.0% for the first, 100.0% for the second.

`C=CC(=O)Nc1cc(Nc2nccc(C(=O)c3ccc(OCC)cc3OCC)n2)c(OC)cc1N(C)CCN(C)C` [EGFR_3365_68, N-(5-((4-(2,4-diethoxybenzoyl)pyrimidin-2-yl)amino)-2-((2-(dimethylamino)ethyl) (methyl)amino)-4-methoxyphenyl)acrylamide] and `C=CC(=O)Nc1cc(Nc2nccc(C(=O)c3ccc(OCCC)cc3OCCC)n2)c(OC)cc1N(C)CCN(C)C` [EGFR_3365_70, N-(2-((2-(dimethylamino)ethyl)(methyl)amino)-5-((4-(2,4-dipropoxybenzoyl)pyrimidin-2-yl)amino)-4-methoxyphenyl)acrylamide] are the same in “Stability in SGF, %” value: 100.0% for the first, 100.0% for the second.

`C=CC(=O)Nc1cc(Nc2nccc(C(=O)c3ccc(OC)cc3OC)n2)c(OC)cc1N(C)CCN(C)C` [EGFR_3365_69, N-(5-((4-(2,4-dimethoxybenzoyl)pyrimidin-2-yl)amino)-2-((2-(dimethylamino)ethyl)(methyl)amino)-4-methoxyphenyl)acrylamide] and `C=CC(=O)Nc1cc(Nc2cc(C(=O)c3ccc(-c4cnn(C)c4)cc3)ccn2)c(OC)cc1N(C)CCN(C)C` [EGFR_3365_85, N-(2-((2-(dimethylamino)ethyl)(methyl)amino)-4-methoxy-5-((4-(4-(1-methyl-1H-pyrazol-4-yl)benzoyl)pyridin-2-yl)amino)phenyl) acrylamide] are the same in “Stability in SGF, %” value: 100.0% for the first, 100.0% for the second.
